Experimental data reported in PMC12457078, “Inhibition of soluble epoxide hydrolase in endotoxin induced pig lung injury” (Frontiers in Pharmacology, 2025).
Where “and” joins values, the source holds several entries; their conditions need not be identical. Identical values can stand only once. Entries after “also recorded” stand apart in the source; their conditions may differ.

System: endotoxin-induced lung injury
Test: porcine model of LPS-induced acute lung injury: haemodynamics, ventilation/mechanics, blood gases, P/F, chemistry, temperature, survival
Type: in vivo, pig
Set-up: AF baseline / AF end / Ven. sat end: unit not given here; PaO2 3 h / PaO2 6 h: unit: kPa
Protocol: The animals were bred for purpose at the Forslunda Agricultural School in Umeå, Sweden. The pigs were pairwise kept in 8 m^2 pens before start of experiments and were fed twice daily with a commercially available pig diet without antimicrobials, and with free access to water. Photoperiods were 12:12 h light:dark. Room temperature in their stall was 20 °C ± 1 °C.
After overnight fasting, but with free access to water and hay, animals were pre-medicated with ketamine (Ketaminol vet® 100 mg/mL; Intervet International B.V, Boxmeer, Netherlands), xylazine (Rompun® vet 20 mg/mL; Bayer Animal Health, Copenhagen, Denmark) and atropine (Atropin Mylan 0.5 mg/mL; Mylan AB, Stockholm, Sweden) by intramuscular injection before an auricular vein was cannulated. Anesthesia was induced with ketamine and midazolam (Midazolam Hameln 5 mg/mL, Hameln Pharmaceuticals, Hameln, Germany) and maintained with ketamine, midazolam, xylazine and fentanyl (Fentanyl 0.05 mg/mL, B. Braun Medical AB, Danderyd, Sweden). The animals were orotracheally intubated and ventilated with tidal volume 8–9 mL/kg, PEEP 8 cmH2O, and a respiratory rate set to achieve an end-tidal carbon dioxide of 5–5.5 kPa.
One animal served as a pharmacokinetic pilot, with arterial and venous catheters placed in a cut-down in the neck. The remaining 21 animals were used for the randomized study (Figure 1). After intubation and start of mechanical ventilation, a second auricular vein cannula was placed and infusion of either AEPU or placebo according to randomization was started. After 2 h of infusion of AEPU or placebo, an infusion of LPS was started. A bolus of 0.1 mg/kg was administered during 30 min after which the infusion rate was adjusted to 0.01 mg/kg/h. During the time between start of AEPU or placebo and LPS infusion, neck dissection was performed, exposing the v jugularis externa and carotid artery. A pulmonary artery introducer and an arterial cannula were placed in vein and artery respectively, and a pulmonary artery catheter introduced through the introducer and the tip placed in the correct position in the pulmonary artery placement guided by continuous invasive pressure monitoring or, when difficult, assisted by fluoroscopy. All surgical procedures were performed under sterile conditions.
AEPU was synthesized according to Kim et al. ([Kim et al., 2007]), delivered in 60 mg vials and dissolved in 30 mL pure ethanol as a co-solvent, of which either 20 mL was added to 980 mL of sodium chloride 9 mg/mL or 8 mL–392 mL sodium chloride, creating a solution of 0.04 mg/mL AEPU and 2% ethanol. The placebo infusion was prepared by adding either 20 mL of pure ethanol to 980 mL of sodium chloride 9 mg/mL or 8 mL of pure ethanol to 392 mL sodium chloride, creating a 2% ethanol solution. Each animal received an infusion of either 0.1 mg/kg/h AEPU or the corresponding volume of placebo solution.
A total of 200 mg of prefabricated lipopolysaccharides (LPS, Escherichia coli serotype 0,111:B4, Sigma-Aldrich (Product no L4130), St. Louis, MO, United States of America) was dissolved in 40 mL of sterile water, carefully mixed and filtered, creating a solution of 5 mg/mL. This preparation was stored frozen (−20 °C) in 1 mL partitions. For each animal, 2 mL of the thawed solution was mixed and diluted in 18 mL of sodium chloride, finally creating a 0.5 mg/mL LPS solution for infusion.
All animals were monitored with pulse oximetry, heart rate, ECG, systemic arterial blood pressure (ABP), pulmonary arterial pressure (PAP), central venous pressure (CVP) temperature, tidal volumes, respiratory rate and end tidal carbon dioxide. At baseline, and at 3 h, 6 h and at the end of the experiment, pulmonary capillary wedge pressure (PCWP) was measured together with arterial and venous blood gas analyses, as well as cardiac output calculations. […]

[1] = 3 h, individual animals, listed as sEH-i 950
[2] = 6 h, individual animals, listed as sEH-i 950
[3] = Lungmekanik, 3 h, individual animals, listed as sEH-i 950
[4] = Lungmekanik, 6 h, individual animals, listed as sEH-i 950
[5] = Lungmekanik, baseline, individual animals, listed as sEH-i 950
[6] = Lungmekanik, end, individual animals, listed as sEH-i 950
[7] = baseline, individual animals, listed as sEH-i 950
[8] = end, individual animals, listed as sEH-i 950
[9] = individual animals, 3 h, listed as sEH-i 950

## CCOCCOCCOCCCCCNC(=O)NC12CC3CC(CC(C3)C1)C2 [Compound 950]
[1]
  AF 3 h: 41 and 50 and 42 and 48 and 30 and 45 and 39 and 44 and 40
  FiO2 3 h: 0.4 and 0.5
  PaO2 3 h: 22.1 and 20.1 and 17 and 22.7 and 19.3 and 16.7 and 9 and 8.1 and 7.3 and 14.7
[2]
  AF 6 h: 40 and 54 and 50 and 48 and 30 and 45 and 39 and 44
  FiO2 6 h: 0.4 and 0.5 and 0.8 and 0.7 and 1
  PaO2 6 h: 19.6 and 12.3 and 11.8 and 18.6 and 18.5 and 14.7 and 8.7 and 9.4 and 6.8 and 7.9
AEPU 0.1 mg/kg/h infusion vs placebo
  lung injury development in LPS treated pigs: did not attenuate
AEPU group, did not survive entire protocol
  Premature death: 40%
Ja = actively terminated, Nej = died, individual animals, listed as sEH-i 950
  Mortalitet: Aktivt avslut: Nej and Ja and Nej*
[3]
  PIP 3 h: 31 cmH2O and 28 cmH2O and 32 cmH2O and 24 cmH2O and 26 cmH2O and 34 cmH2O and 39 cmH2O and 44 cmH2O and 36 cmH2O
  Pmedel 3 h: 14 cmH2O and 15 cmH2O and 12 cmH2O and 13 cmH2O and 16 cmH2O and 17 cmH2O
  Pplat 3 h: 26 cmH2O and 23 cmH2O and 22 cmH2O and 27 cmH2O and 28 cmH2O and 25 cmH2O and 34 cmH2O and 33 cmH2O
[4]
  PIP 6 h: 32 cmH2O and 33 cmH2O and 28 cmH2O and 30 cmH2O and 22 cmH2O
  Pmedel 6 h: 13 cmH2O and 15 cmH2O and 14 cmH2O and 12 cmH2O
  Pplat 6 h: 27 cmH2O and 26 cmH2O and 23 cmH2O and 21 cmH2O and 18 cmH2O
[5]
  PIP baseline: 25 cmH2O and 23 cmH2O and 19 cmH2O and 24 cmH2O and 26 cmH2O and 27 cmH2O
  Pmedel baseline: 12 cmH2O and 15 cmH2O and 13 cmH2O and 11 cmH2O and 14 cmH2O
  Pplat baseline: 19 cmH2O and 16 cmH2O and 18 cmH2O and 22 cmH2O and 17 cmH2O
[6]
  PIP end: 30 cmH2O and 37 cmH2O and 29 cmH2O and 28 cmH2O and 46 cmH2O
  Pmedel end: 13 cmH2O and 16 cmH2O and 14 cmH2O
  Pplat end: 24 cmH2O and 29 cmH2O and 22 cmH2O and 28 cmH2O
P/F-kvot, 3 h, individual animals, listed as sEH-i 950
  PaO2/FiO2 3h: 55.25 and 40.2 and 42.5 and 56.75 and 48.25 and 41.75 and 22.5 and 16.2 and 18.25 and 36.75
P/F-kvot, 6 h, individual animals, listed as sEH-i 950
  PaO2/FiO2 6h: 49 and 24.6 and 23.6 and 46.5 and 46.25 and 36.75 and 10.87 and 13.43 and 6.8 and 19.75
P/F-kvot, baseline, individual animals, listed as sEH-i 950
  PaO2/FiO2 baseline: 73.75 and 71.5 and 73 and 67 and 72.75 and 65.25 and 70.5 and 72.25 and 61.75 and 74.75
P/F-kvot, end, individual animals, listed as sEH-i 950
  PaO2/FiO2 end: 49.75 and 16.75 and 24 and 48.75 and 30.5 and 4.4 and 8.7
baseline, individual animals
  FiO2 baseline: 0.4
[7]
  AF baseline: 40 and 42 and 26 and 34 and 46
  PaO2 baseline: 29.5 and 28.6 and 29.2 and 26.8 and 29.1 and 26.1 and 28.2 and 28.9 and 24.7 and 29.9
Cause of death, individual animals, listed as sEH-i 950
  Mortalitet: Dödsorsak: Cirkulationssvikt; also recorded: Adrenalinet tog slut…; also recorded: *Tubbyte/Hypoxi; also recorded: Lungsvikt/Hypoxi
Change of P/F from baseline to 3 h, individual animals, listed as sEH-i 950
  P/F 3h - baseline: -18.5 and -31.3 and -30.5 and -10.25 and -24.5 and -23.5 and -48 and -56.05 and -43.5 and -38
Change of P/F from baseline to 6 h, individual animals, listed as sEH-i 950
  P/F 6h - baseline: -24.75 and -46.9 and -49.4 and -20.5 and -26.5 and -28.5 and -59.625 and -58.8214 and -54.95 and -55
Change of P/F from baseline to 9 h (end), individual animals, listed as sEH-i 950
  P/F 9h- baseline: -24 and -54.75 and -49 and -18.25 and -34.75 and -66.1 and -63.55
Comments on clinical course, individual animals, listed as sEH-i 950
  Mortalitet, kommentarer: Instabil. Död i högersvikt 16.20 trots adrenalin; also recorded: Tidig start adrenalininf pga lågt CO; also recorded: Mycket svårt septisk. Extrema doser adrenalin; also recorded: Mycket svårt septisk. Högersvikt; also recorded: Relativt stabil. Nästan frisk i slutet; also recorded: Försök till tubbyte -> hypoxi + död; also recorded: Standardupplägg. Ter sig septisk redan vid induktion; also recorded: Svårt septisk redan från första början. Instabil. Död i cirkulationssvikt något i förtid. Misslyckad deff; also recorded: Septisk. Kräver adrenalininf. Uttalad lungskada. Lågt CO på slutet. Högdos adrenalin. Svår hjärtsvikt; also recorded: Svår sepsis med ffa svår lungsvikt. Mors i hypoxi efter 6 h. Sista prov (6h) några minuter före död. PSVT upprepat med självterminerande vid LPS-bolus
End of experiment, AEPU group
  Fluid administration total: 5785 (5080–7210) mL
  Urine output: 700 (320–1200) mL
[8]
  AF end: 40 and 54 and 50 and 48 and 45 and 39 and 44
  FiO2 end: 0.4 and 0.8 and 0.5 and 1
  PaO2 end: 19.9 and 13.4 and 12 and 19.5 and 12.2 and 4.4 and 8.7
[9]
  CO 3 h: 3.2 L/min and 5.3 L/min and 3.6 L/min and 3.3 L/min and 5.7 L/min and 3.1 L/min and 4.2 L/min
  CVP 3 h: 15 mmHg and 21 mmHg and 14 mmHg and 10 mmHg and 17 mmHg and 18 mmHg and 13 mmHg and 16 mmHg
  HR 3 h: 141 and 137 and 175 and 135 and 140 and 119 and 162 and 144 and 164 and 114
  MAP 3 h: 110 mmHg and 107 mmHg and 58 mmHg and 72 mmHg and 94 mmHg and 79 mmHg and 88 mmHg and 106 mmHg and 52 mmHg and 99 mmHg
  MPAP 3 h: 65 mmHg and 39 mmHg and 41 mmHg and 43 mmHg and 46 mmHg and 47 mmHg and 54 mmHg and 51 mmHg and 55 mmHg
  PCWP 3 h: 21 mmHg and 15 mmHg and 17 mmHg and 19 mmHg
  PaCO2 3 h: 4.9 kPa and 5.9 kPa and 6.6 kPa and 5.6 kPa and 6.5 kPa and 5.2 kPa and 5.7 kPa and 6.9 kPa and 7.7 kPa and 5.8 kPa
